Source: patent US10160705B2, “Class of HDAC inhibitors expands the renal progenitor cells population and improves the rate of recovery from acute kidney injury” (University of Pittsburgh—Of the Commonwealth System of …, priority 2011, dated 2018)

Legend:
[1] = tested on: histone H4; test: Histone H4 hyperacetylation Western blot in treated embryos; format: in vivo, zebrafish; conditions: 24 hpf embryos, 6 hours; 3 μM PTBA, 25 μM PBA, 200 nM TSA
Description: It was next determined whether the HDACi function of PTBA was quantifiable in vivo. 24 hpf embryos were treated with 3 μM PTBA, 25 μM PBA, or 200 nM TSA for 6 hours. Protein extracts were prepared and immunoblotted with an anti-hyperacetylated histone H4 antibody. […] Furthermore, increasing the compound concentration caused a corresponding increase in hyperacetylation (FIG. 21).
SDS-PAGE and Western blotting were performed as described previously with some modifications (Noel, E. S. et al. Organ-specific requirements for Hdac1 in liver and pancreas formation. Dev Biol 322, 237-250, (2008)). Proteins were separated on 18% SDS-PAGE gels. Membranes were incubated at 4° C. overnight with 1:1000 anti-hyperacetylated histone H4 antibody (06-946, Millipore) or 1:1000 anti-α-tubulin antibody (Sigma-Aldrich) in PBT containing 5% nonfat milk.

[2] = tested on: lhx1a, pax2a, pax8, ntla; test: Relative qPCR in the trunk region of 10-somite embryos; format: in vivo, zebrafish; conditions: 3 μM
Description: Several of the genes analyzed by qPCR, including lhx1a and pax2a, show expression in anterior regions of the embryo as well as the IM. To focus more specifically on effects in the IM, cDNA samples taken from the trunks of treated and control embryos were examined. Samples for trunk RNA extraction were prepared by cutting embryos just above the first somite with microscissors and discarding the anterior portion. The trunk portions were homogenized with a plastic microcentrifuge pestle in 500 μL of TRI reagent (Ambion), and RNA was isolated using an RNeasy Micro Kit (QIAGEN) per the manufacturer's instructions. 1 μg RNA was heated to 75° C. for 5 min and then placed on ice. […]
Primer sets were designed using NetPrimer and Beacon Designer (ver. 7.51) primer analysis software (PREMIER Biosoft). […] Primer melting temperatures were maintained between 60° C. and 64° C. as determined by NetPrimer. […] The reference gene primer sets have been previously described (Tang, R., Dodd, A., Lai, D., McNabb, W. C. & Love, D. R. Validation of zebrafish (Danio rerio) reference genes for quantitative real-time RT-PCR normalization. Acta Biochim Biophys Sin (Shanghai) 39, 384-390, (2007)) with one modification. […]
Relative gene expression was calculated using iQ5 software (ver. 2.0, Bio-Rad) to determine normalized expression levels (ΔΔCt method). […]

[3] = tested on: kidney field; test: In situ hybridization for kidney markers (pax2a, pax8, cdh17, wt1a, slc4a4, slcl2a1); format: in vivo, zebrafish; conditions: 3 μM
Description: PTBA was synthesized as described below. Hydroxyurea and aphidicolin were obtained from Sigma-Aldrich.
In situ hybridization and immunocytochemistry: In situ hybridization was performed as previously described with some modifications.142 Hybridization temperature was 65° C. Embryos were blocked in 2% blocking reagent (Roche) with 5% sheep serum in MAB (100 mM maleic acid and 150 mM NaCl [pH 7.5]). Whole-mount immunocytochemistry with 1:25 mouse anti-α6F antibody (Developmental Studies Hybridoma Bank) and 1:100 Cy3 secondary antibody (Jackson ImmunoResearch) was performed as described previously.108 Embryos were embedded in JB-4 for sectioning per the manufacturer's instructions (Polysciences), sectioned at 5 μm, and mounted with Cytoseal 60 (Richard-Allan Scientific).

[4] = tested on: human HDACs; test: Fluorescence histone deacetylation assay with HeLa cell nuclear extract; format: biochemical
Description: To evaluate this in vitro, the deacetylation of a fluorescent peptide substrate was measured in the presence of human HDACs.
In vitro HDAC activity assays were performed using a fluorescence HDAC assay kit (Active Motif) according to the manufacturer's instructions. For maintaining compound solubility at 5 mM, the final DMSO concentration in all assay wells was increased to 5%. Fluorescence was detected using an M5 Plate Reader ([…])

Compound: O=C(O)CCCSc1ccccc1 [UPHD-00020, 4-(phenylthio)butanoic acid (PTBA)]
- histone H4 hyperacetylation [1]: Histone H4 hyperacetylation was observed
- increase in pax2a expression by qPCR [2]: almost two-fold increase
- increase in relative lhx1a transcript by qPCR [2]: three-fold increase
- expansion of slc4a4 (proximal tubule) ([3]; 48 hpf): 92%
- pax2a expression at 24 hpf ([3]; treatment beginning at 16.5 hpf (15 somites)): no kidney field expansion
- pax2a expression at 24 hpf ([3]; treatment initiated between 2 hpf and 14 hpf (10 somites)): expanded pax2a expression
- HDAC activity elicited by 10 μg HeLa extract, percent of the control value ([4]; 5 mM compound): 30%
- reduction of HDAC activity ([4]; millimolar concentrations): 70%
